Results: ChEMBL document CHEMBL5506059, “Cyanomethylquinolones as a New Class of Potential Multitargeting Broad-Spectrum Antibacterial Agents” (J Med Chem, 2024)
Converted amounts (≈) assume the structure as drawn. The source made the active and inactive calls. The calls are words filed in the database; no cut-off is given here.

Key:
Klebsiella pneumoniae = test: Antibacterial activity against Klebsiella pneumoniae clinical isolate assessed as inhibition of bacterial growth incubated for 24 hrs; format: functional
Escherichia coli [1] = test: Potency index, ratio of ciprofloxacin MIC to test compound MIC for antibacterial activity against Escherichia coli ATCC 25922 assessed as inhibition of bacterial growth incubated for 24 hrs; format: functional
Enterococcus faecalis [2] = test: Antibacterial activity against Enterococcus faecalis clinical isolate assessed as inhibition of bacterial growth incubated for 24 hrs; format: functional
Pseudomonas aeruginosa [3] = test: Antibacterial activity against Pseudomonas aeruginosa ATCC 27853 assessed as inhibition of bacterial growth incubated for 24 hrs; format: functional
Staphylococcus aureus [4] = test: Antibacterial activity against Staphylococcus aureus ATCC 29213 assessed as inhibition of bacterial growth incubated for 24 hrs; format: functional
Escherichia coli [5] = test: Antibacterial activity against Escherichia coli clinical isolate assessed as inhibition of bacterial growth incubated for 24 hrs; format: functional
Staphylococcus aureus [6] = test: Antibacterial activity against methicillin resistant Staphylococcus aureus clinical isolate assessed as inhibition of bacterial growth incubated for 24 hrs; format: functional
Pseudomonas aeruginosa [7] = test: Antibacterial activity against Pseudomonas aeruginosa clinical isolate assessed as inhibition of bacterial growth incubated for 24 hrs; format: functional
Escherichia coli [8] = test: Potency index, ratio of norfloxacin MIC to test compound MIC for antibacterial activity against Escherichia coli ATCC 25922 assessed as inhibition of bacterial growth incubated for 24 hrs; format: functional
Escherichia coli [9] = test: Antibacterial activity against Escherichia coli ATCC 25922 assessed as inhibition of bacterial growth incubated for 24 hrs; format: functional
Acinetobacter baumannii = test: Antibacterial activity against Acinetobacter baumannii clinical isolate assessed as inhibition of bacterial growth incubated for 24 hrs; format: functional
Staphylococcus aureus [10] = test: Antibacterial activity against Staphylococcus aureus ATCC 25923 assessed as inhibition of bacterial growth incubated for 24 hrs; format: functional
Staphylococcus aureus [11] = test: Antibacterial activity against Staphylococcus aureus clinical isolate assessed as inhibition of bacterial growth incubated for 24 hrs; format: functional
Calf thymus DNA [12] = test: Binding affinity to calf thymus DNA assessed as disruption of DNA confirmation by measuring blue shift at 0 to 3.3x10^-8mol/L by UV absorption spectra based analysis; format: nucleic-acid assay; settings: Bos taurus; dose 0-3.3 10^-8mol/L
Staphylococcus aureus [13] = test: Antibacterial activity against methicillin-resistant Staphylococcus aureus ATCC 43300 assessed as inhibition of bacterial growth incubated for 24 hrs; format: functional
Staphylococcus aureus [14] = test: Antibacterial activity against Staphylococcus aureus CMCC(B)26001 assessed as inhibition of bacterial growth incubated for 24 hrs; format: functional
Enterococcus faecalis [15] = test: Antibacterial activity against vancomycin-resistant Enterococcus faecalis clinical isolate p1-2007226001 assessed as inhibition of bacterial growth incubated for 24 hrs; format: functional
Pseudomonas aeruginosa [16] = test: Induction of intracellular ROS generation in Pseudomonas aeruginosa assessed as increase in fluorescence intensity at 2 ug/ml incubated for 6 hrs by DCFH-DA dye based fluorescence analysis; format: functional, organism-based; settings: dose 2.0 µg/ml
Streptococcus pyogenes = test: Antibacterial activity against Streptococcus pyogenes ATCC 19615 assessed as inhibition of bacterial growth incubated for 24 hrs; format: functional
Staphylococcus aureus [17] = test: Antibacterial activity against methicillin resistant Staphylococcus aureus assessed as reduction in metabolic activity by measuring reduction in fluorescence intensity at 0.5 to 2 times MIC incubated for 6 hrs by alamar blue assay; format: functional, organism-based
[18] = Hemolytic activity in human Red blood cells at 256 ug/ml measured after 1.5 hrs by absorbance based assay relative to control; format: toxicity, cell-based, Erythrocyte; settings: red blood cells (erythrocytes), at 256 µg/mL, read-out: Activity
Pseudomonas aeruginosa [19] = test: Induction of intracellular ROS generation in Pseudomonas aeruginosa assessed as increase in fluorescence intensity at 2 ug/ml incubated for 6 hrs in presence of N-acetyl-L-cysteine by DCFH-DA dye based fluorescence analysis; format: functional, organism-based; settings: dose 2.0 µg/ml
Erythrocyte = test: Hemolytic activity in human Red blood cells assessed as concentration required for 5% hemolysis measured after 1.5 hrs by absorbance based assay; format: toxicity, cell-based
Calf thymus DNA [20] = test: Binding affinity to calf thymus DNA assessed as DNA-compound complex formation by measuring increase in absorption of DNA at 260 nm at 0 to 3.3 x 10^-8mol/L by UV absorption spectra based analysis; format: nucleic-acid assay; settings: Bos taurus; dose 0-3.3 10^-8mol/L
Staphylococcus aureus [21] = test: Antibacterial activity against Staphylococcus aureus ATCC 6538 assessed as inhibition of bacterial growth incubated for 24 hrs; format: functional
Staphylococcus aureus [22] = test: Antibacterial activity against Staphylococcus aureus ATCC 12600 assessed as inhibition of bacterial growth incubated for 24 hrs; format: functional
Pseudomonas aeruginosa [23] = test: Antibiofilm activity in Pseudomonas aeruginosa assessed as biofilm eradication measured after 24 hrs by crystal violet staining based analysis; format: functional, organism-based; settings: dose 1-2 µg/ml
Staphylococcus aureus [24] = test: Resistance development in methicillin resistant Staphylococcus aureus assessed as increase in MIC measured after 20 days; format: functional, organism-based; settings: time 20.0 day
Pseudomonas aeruginosa [25] = test: Antibacterial activity against Pseudomonas aeruginosa assessed as reduction in metabolic activity by measuring reduction in fluorescence intensity at 0.5 to 2 times MIC incubated for 6 hrs by alamar blue assay; format: functional, organism-based
Streptococcus pneumoniae = test: Antibacterial activity against Streptococcus pneumoniae ATCC 6305 assessed as inhibition of bacterial growth incubated for 24 hrs; format: functional
Enterococcus faecium = test: Antibacterial activity against Enterococcus faecium ATCC 19434 assessed as inhibition of bacterial growth incubated for 24 hrs; format: functional
Staphylococcus aureus [26] = test: Antibacterial activity against methicillin resistant Staphylococcus aureus clinical isolate assessed as inhibition of bacterial growth at 1 times MIC incubated under dark condition and measured upto 5 hrs relative to control; format: functional
Calf thymus DNA [27] = test: Binding affinity to calf thymus DNA assessed as DNA-compound complex formation by measuring hyperchromism at 0 to 3.3 x 10^-8mol/L by UV absorption spectra based analysis; format: nucleic-acid assay; settings: Bos taurus; dose 0-3.3 10^-8mol/L
Staphylococcus aureus [28] = test: Antibiofilm activity in methicillin resistant Staphylococcus aureus assessed as biofilm eradication measured after 24 hrs by crystal violet staining based analysis; format: functional, organism-based; settings: dose 1-2 µg/ml
[29] = test system: Staphylococcus epidermidis; test: Antibacterial activity against Staphylococcus epidermidis ATCC 12228 assessed as inhibition of bacterial growth incubated for 24 hrs; format: functional
Enterococcus faecalis [30] = test: Antibacterial activity against vancomycin-resistant Enterococcus faecalis clinical isolate p1-2007225053 assessed as inhibition of bacterial growth incubated for 24 hrs; format: functional
Pseudomonas aeruginosa [31] = test: Resistance development in Pseudomonas aeruginosa assessed as increase in MIC measured after 20 days; format: functional, organism-based; settings: time 20.0 day
Staphylococcus aureus [32] = test: Antibacterial activity against Staphylococcus aureus CMCC(B)26003 assessed as inhibition of bacterial growth incubated for 24 hrs; format: functional
Calf thymus DNA [33] = test: Competitive binding affinity to calf thymus DNA assessed as displacement of neutral red from DNA-neutral red complex by measuring reduction in absorbance at 540 nm at 0 to 2.9x10^-8 mol/L by UV absorption spectroscopy; format: nucleic-acid assay; settings: Bos taurus; dose 0-2.9 10^-8mol/L

With `C[C@H]1COc2c(CC(=O)O)c(F)cc3c(=O)c(C(=O)O)cn1c23` the MIC (Klebsiella pneumoniae) was 8 µg/mL (≈ 24.9 µM), the Ratio (Escherichia coli [1]) was 2 and the MIC (Enterococcus faecalis [2]) was 1 µg/mL (≈ 3.11 µM). It also gave an MIC (Pseudomonas aeruginosa [3]) of 0.5 µg/mL (≈ 1.56 µM), an MIC (Staphylococcus aureus [4]) of 1 µg/mL (≈ 3.11 µM) and an MIC (Escherichia coli [5]) of 0.5 µg/mL (≈ 1.56 µM). The MIC (Staphylococcus aureus [6]) was 1 µg/mL (≈ 3.11 µM), the MIC (Pseudomonas aeruginosa [7]) was 0.5 µg/mL (≈ 1.56 µM) and the Ratio (Escherichia coli [8]) was 16. For the same compound, the MIC (Escherichia coli [9]) was 0.25 µg/mL (≈ 0.778 µM), the MIC (Acinetobacter baumannii) was 1 µg/mL (≈ 3.11 µM) and the MIC (Staphylococcus aureus [10]) was 32 µg/mL (≈ 99.6 µM). It also gave an MIC (Staphylococcus aureus [11]) of 16 µg/mL (≈ 49.8 µM).
In the case of `C#CCn1cc(C(=O)O)c(=O)c2cc(F)c(CC#N)cc21`, the Activity (Calf thymus DNA [12]) is reported as “Active”, the MIC (Staphylococcus aureus [13]) is reported as 4 µg/mL (≈ 14.1 µM) and the MIC (Staphylococcus aureus [14]) is reported as 4 µg/mL (≈ 14.1 µM). The MIC (Enterococcus faecalis [15]) was 16 µg/mL (≈ 56.3 µM), the MIC (Klebsiella pneumoniae) was 2 µg/mL (≈ 7.04 µM) and the Activity (Pseudomonas aeruginosa [16]) was “Active”. For the same compound, the MIC (Streptococcus pyogenes) was 1 µg/mL (≈ 3.52 µM), the Activity (Staphylococcus aureus [17]) was “Active” and the hemolysis at 1.5 h, 256 ug/ml [18] was less than 1%. The MIC (Enterococcus faecalis [2]) was 1 µg/mL (≈ 3.52 µM), the MIC (Pseudomonas aeruginosa [3]) was 1 µg/mL (≈ 3.52 µM) and the MIC (Staphylococcus aureus [4]) was 1 µg/mL (≈ 3.52 µM). The Activity (Pseudomonas aeruginosa [19]) was “inactive”, the HC5 (Erythrocyte) was greater than 10000 µg/mL and the Activity (Calf thymus DNA [20]) was “Active”. For the same compound, the MIC (Escherichia coli [5]) was 1 µg/mL (≈ 3.52 µM), the MIC (Staphylococcus aureus [21]) was 2 µg/mL (≈ 7.04 µM) and the MIC (Staphylococcus aureus [22]) was 16 µg/mL (≈ 56.3 µM). The Activity (Pseudomonas aeruginosa [23]) was “Dose-Dependent Effect”, the MIC (Staphylococcus aureus [6]) was 0.5 µg/mL (≈ 1.76 µM) and the MIC (Pseudomonas aeruginosa [7]) was 0.25 µg/mL (≈ 0.88 µM). The Activity (Staphylococcus aureus [24]) was “inactive”, the Activity (Pseudomonas aeruginosa [25]) was “Active” and the MIC (Escherichia coli [9]) was 0.5 µg/mL (≈ 1.76 µM). It also gave an MIC (Acinetobacter baumannii) of 0.5 µg/mL (≈ 1.76 µM), an MIC (Streptococcus pneumoniae) of 32 µg/mL (≈ 113 µM) and an MIC (Enterococcus faecium) of 4 µg/mL (≈ 14.1 µM). For the same compound, the “inhibition (INH)” value (Staphylococcus aureus [26]) was roughly 100%, the Activity (Calf thymus DNA [27]) was “Active” and the MIC (Staphylococcus aureus [10]) was 0.25 µg/mL (≈ 0.88 µM). For the same compound, the Activity (Staphylococcus aureus [28]) was “Dose-Dependent Effect”, the MIC [29] was 4 µg/mL (≈ 14.1 µM) and the MIC (Enterococcus faecalis [30]) was 8 µg/mL (≈ 28.1 µM). For the same compound, the MIC (Staphylococcus aureus [11]) was 256 µg/mL (≈ 901 µM), the Activity (Pseudomonas aeruginosa [31]) was “inactive” and the MIC (Staphylococcus aureus [32]) was 2 µg/mL (≈ 7.04 µM). The Activity (Calf thymus DNA [33]) was “Active”.
